Results reported in patent publication US11603515B2, “Cell culture substrate, cancer cell aggregate and method for manufacturing same using said substrate, and drug screening method using said cancer cell aggregate” (NATIONAL UNIVERSITY CORPORATION HOKKAIDO UNIVERSITY, priority 2017, dated 2023).

Test system: microtumor consisting of PCI-55 cells
Assay: Evaluation of anticancer agent using microtumors (morphological change and molecular expression)
Assay type: cell-based, human
Description: A total of six types of cell culture substrates with Roughness (+) or Roughness (−) of 30, 95, or 300 μm in spot diameter were used to culture human pancreatic ductal adenocarcinoma cell line PCI-55. Immediately before culturing the cells, each of the cell culture substrates was immersed in distilled water for about 30 minutes to detach the polyparaxylene layer. Then, the cell culture substrate was washed using water, sterilized with 70% ethanol, and air dried. The cell culture substrate was then fixed to the inner bottom of a culture dish (Asnol petri dish, AS ONE) with 40 mm in diameter and 13.5 mm in depth via Vaseline. After adding DMEM and washing the cell culture substrate for three times, 3×10^6 of PCI-55 cells suspended in 3 mL of DMEM were seeded on each cell culture substrate, and cultured at 37 degrees Celsius overnight to for 48 hours.
Morphological change in microtumors was observed, by adding nocodazole known as an anticancer agent with microtubule polymerization inhibitory activity to a culture medium of the microtumor consisting of PCI-55 cells formed on the cell culture substrate 1 in Example 2 so that the final concentration becomes 1 μM.

[1] = nocodazole 1 μM, 24 hours after treatment, fluorescence images (FIG. 49)

In the case of COC(=O)Nc1nc2ccc(C(=O)c3cccs3)cc2[nH]1 [nocodazole], the “Cell-in-cell structure of the microtumor” value [1] is reported as “destructed”, the “Membranous expression of α-tubulin in the microtumor” value [1] is reported as “disappeared” and the “Release of cells from the inner microtumor” value [1] is reported as “a number of viable cells were scattered so as to overflow from the inner microtumor”. For the same compound, the “Adhesion of microtumor to the spot on the cell culture substrate / morphology” value (nocodazole final concentration 1 μM, PCI-55 microtumor on cell culture substrate 1, time-lapse DIC (FIG. 48)) was “prevented from adhering to the spot on the cell culture substrate, and formed spheroidal morphology” and the “Accumulation of Annexin V on the surface of microtumor (dead cell phenotype)” value (nocodazole treatment, Annexin V and EthD time-lapse images (FIG. 50)) was “reduced the accumulation of Annexin V on the surface of microtumor”.
